Test results as given in patent US12174172B2, “Method for evaluating the efficacy of a composition in reducing the effects of cancer therapeutics on skin” (Johnson & Johnson Consumer Inc., priority 2019, dated 2024).

System: SkinEthic Reconstructed Human Epidermis (RHE)
Experiment: Skin barrier function: trans-epidermal water loss (TEWL) on reconstructed human epidermis
Assay type: cell-based
Conditions: SDS 0.5% topical
Method: The effect of drugs on the skin barrier function was assessed by measuring trans-epidermal water loss (TEWL) rates on SkinEthicTM Reconstructed Human Epidermis (RHE) model (Episkin, Lyon, France) using Tewitro® TW 24 (Courage+Khazaka electronic GmbH, Köln, Germany). This instrument allows 24 simultaneous measurements on RHE. TEWL was analyzed at 33° C. in an incubator. […] Petrolatum, a highly hydrophobic hydrocarbon, water-repelling and insoluble in water was used to block water evaporation at the RHE surface (negative control). […] DMSO was used in the same proportion in the vehicle. SkinEthicTM RHE (Episkin, Lyon, France), is an in vitro reconstructed human epidermis from normal human keratinocytes cultured on an inert polycarbonate filter at the air-liquid interface, in a chemically defined medium. This model exists at different stages of maturity. This model is histologically similar to in vivo human epidermis. See […].com/SkinEthic%20RHE. The Tewitro® TW 24 is a device that measures water evaporation from cultured tissue sets (wells in a plate with medium) in up to 24 wells simultaneously. See https://www.courage-[…].

With sodium dodecyl sulfoxide [SDS] the “increase of the TEWL rate” value (day 1) was 98%, the “increase of the TEWL rate” value (day 2, afatinib 100 nM in the media) was 77% and the “increase of the TEWL rate” value (day 5, afatinib 100 nM in the media) was 58%. For the same substance, the “increase of the TEWL rate” value (day 7, afatinib 100 nM in the media) was “non-significant increase”.
